target: T1, His6-PDK1 (aa 52-556) (Homo sapiens, UniProt O15530); assay: PDK1 kinase assay III (with Tween 20); type: biochemical; details: compound at 10 μM; PDK1 kinase assay III (values without asterisk); read-out: % CTL (residual activity of the enzyme relative to DMSO control)
T1 construct: 15 μL His6-PDK1 (aa 52-556) 3.33 ng/well); host or cells: baculovirus-infected insect cells
T1 sequence (O15530 52-556): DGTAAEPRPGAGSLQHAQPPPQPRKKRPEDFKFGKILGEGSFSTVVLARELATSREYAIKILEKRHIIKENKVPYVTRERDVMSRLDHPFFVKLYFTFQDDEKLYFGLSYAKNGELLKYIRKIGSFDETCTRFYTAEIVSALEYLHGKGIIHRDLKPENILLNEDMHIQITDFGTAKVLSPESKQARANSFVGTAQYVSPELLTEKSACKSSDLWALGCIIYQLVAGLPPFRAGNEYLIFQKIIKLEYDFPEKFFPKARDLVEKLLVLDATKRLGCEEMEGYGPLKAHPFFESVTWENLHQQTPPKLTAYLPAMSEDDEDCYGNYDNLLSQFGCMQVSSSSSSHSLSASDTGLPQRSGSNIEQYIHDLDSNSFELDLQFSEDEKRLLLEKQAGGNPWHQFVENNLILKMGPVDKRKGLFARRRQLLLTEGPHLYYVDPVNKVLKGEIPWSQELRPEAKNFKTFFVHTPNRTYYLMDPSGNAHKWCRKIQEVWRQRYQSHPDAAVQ
Experimental: Purified enzyme may be obtained for example from the University of Dundee, Scotland.
Another PDK1 assay was developed which by comparison with PDK1 assay 1 additionally contains Tween 20:
The final concentration of Tween 20 is 0.005%.
The reaction is started by adding the ATP solution and the mixture is incubated for 90 min at ambient temperature; at the start of the reaction the dishes are shaken gently. The reaction is stopped by the addition of 50 μL/well of 500 mM phosphoric acid (H3PO4) and incubated for about 20 min at ambient temperature. […] The measured data are evaluated using Graphpad Prism software.
The % CTL values indicate the residual activity of the enzyme after the addition of the inhibitory compound in the solvent DMSO in relation to the enzyme activity in the solvent DMSO without the addition of a compound (control). The majority of the values were determined using the PDK1 kinase assay III described hereinbefore. The values marked with an asterisk (* or**) were determined using the PDK1 kinase assay II described hereinbefore (one asterisk→incubation for 24 h; two asterisks→incubation for 5 min)

| SMILES | remaining activity at 10 µM [%] |
| --- | --- |
| COCCN(C)C(=O)c1ccc(Nc2ncc3cc(C#CCNC(=O)c4cncn(Cc5ccc(F)c(F)c5)c4=O)ccc3n2)cc1 | 12.2 |
| Cc1c(C(=O)NCC#Cc2ccc3nc(Nc4ccc(C(=O)NC5CCN(C)CC5)cc4)ncc3c2)c(=O)n(Cc2ccc(F)c(F)c2)n1C | 11.6 |
| Cc1c(C(=O)NCC#Cc2ccc3nc(Nc4ccc(C(=O)N(C)C5CCN(C)CC5)cc4)ncc3c2)c(=O)n(Cc2ccc(F)c(F)c2)n1C | 12.4 |
| CCN1CCC(NC(=O)c2ccc(Nc3ncc4cc(C#CCNC(=O)c5c(C)n(C)n(Cc6ccc(F)c(F)c6)c5=O)ccc4n3)cc2)CC1 | 13.7 |
| Cc1c(C(=O)NCC#Cc2ccc3nc(Nc4ccc(C(=O)NC5CCN(C6CC6)CC5)cc4)ncc3c2)c(=O)n(Cc2ccc(F)c(F)c2)n1C | 11.6 |
| Cc1c(C#CCNC(=O)c2c(C)n(C)n(Cc3ccc(F)c(F)c3)c2=O)ccc2nc(Nc3ccccc3)ncc12 | 12.4 |
| Cc1c(C(=O)NCC#Cc2ccc3nc(NC(C)C)ncc3c2)c(=O)n(Cc2ccc(F)c(F)c2)n1C | 24.4 |
| Cc1c(C(=O)NCC#Cc2ccc3nc(NC4CCOCC4)ncc3c2)c(=O)n(Cc2ccc(F)c(F)c2)n1C | 25 |
| Cc1c(C(=O)NCC#Cc2ccc3nc(NC4CCC4)ncc3c2)c(=O)n(Cc2ccc(F)c(F)c2)n1C | 12.3 |
| CCNc1ncc2cc(C#CCNC(=O)c3cncn(Cc4ccc(F)c(F)c4)c3=O)ccc2n1 | 17.6 |
| CNc1ncc2cc(C#CCNC(=O)c3c(C)n(C)n(Cc4ccc(F)c(F)c4)c3=O)ccc2n1 | 14.9 |
| Cc1c(C(=O)NCC#Cc2ccc3nc(Nc4ccc(C(=O)NC5CCC(C)CC5)cc4)ncc3c2)c(=O)n(Cc2ccc(F)c(F)c2)n1C (stereo not drawn) | 20.8 |
| COCCCN(C)C(=O)c1ccc(Nc2ncc3cc(C#CCNC(=O)c4c(C)n(C)n(Cc5ccc(F)c(F)c5)c4=O)ccc3n2)cc1 | 16 |
| CC1CCC(NC(=O)c2ccc(Nc3ncc4cc(C#CCNC(=O)c5cncn(Cc6ccc(F)c(F)c6)c5=O)ccc4n3)cc2)CC1 (stereo not drawn) | 19.7 |
| CN(C)CCNC(=O)c1ccc(Nc2ncc3cc(C#CCNC(=O)c4cncn(Cc5ccc(F)c(F)c5)c4=O)ccc3n2)cc1 | 18.5 |
| CN(C)CCCNC(=O)c1ccc(Nc2ncc3cc(C#CCNC(=O)c4cncn(Cc5ccc(F)c(F)c5)c4=O)ccc3n2)cc1 | 18.3 |
| CCNc1ncc2cc(/C=C/CNC(=O)c3cncn(Cc4ccc(F)c(F)c4)c3=O)ccc2n1 | 23.5 |
| O=C(NC/C=C/c1ccc2nc(NC3CC3)ncc2c1)c1cncn(Cc2ccc(F)c(F)c2)c1=O | 17 |
| COc1ccc(Nc2ncc3cc(/C=C/CNC(=O)c4cncn(Cc5ccc(F)c(F)c5)c4=O)ccc3n2)cc1 | 13.8 |
| CNc1ncc2cc(/C=C/CNC(=O)c3cncn(Cc4ccc(F)c(F)c4)c3=O)ccc2n1 | 21.7 |
| O=C(NC/C=C/c1ccc2nc(Nc3ccccn3)ncc2c1)c1cncn(Cc2ccc(F)c(F)c2)c1=O | 18.4 |
| O=C(NC/C=C/c1ccc2nc(Nc3ccncc3)ncc2c1)c1cncn(Cc2ccc(F)c(F)c2)c1=O | 12.1 |
| CN1CCC(N(C)c2ccc(Nc3ncc4cc(/C=C/CNC(=O)c5nc(Cl)cn(Cc6ccc(F)c(F)c6)c5=O)ccc4n3)cc2)CC1 | 12.6 |

Now from value to compound:

| remaining activity at 10 µM [%] | SMILES |
| --- | --- |
| 16.1 | Cc1c(C(=O)NCC#Cc2ccc3nc(Nc4ccc(C(=O)NC5CCN(C)CC5)c(Cl)c4)ncc3c2)c(=O)n(Cc2ccc(F)c(F)c2)n1C |
| 14.3 | Cc1c(C(=O)NCC#Cc2ccc3nc(Nc4ccc(N(C)C)cc4)ncc3c2)c(=O)n(Cc2ccc(F)c(F)c2)n1C |
| 14.7 | COc1ccc(Nc2ncc3cc(C#CCNC(=O)c4c(C)n(C)n(Cc5ccc(F)c(F)c5)c4=O)ccc3n2)cc1 |
| 15 | COc1cc(Nc2ncc3cc(C#CCNC(=O)c4c(C)n(C)n(Cc5ccc(F)c(F)c5)c4=O)ccc3n2)ccc1C(=O)NC1CCN(C)CC1 |
| 11 | Cc1c(C(=O)NCC#Cc2ccc3nc(Nc4ccc(C(=O)NC5CCN(C)CC5)c(F)c4)ncc3c2)c(=O)n(Cc2ccc(F)c(F)c2)n1C |
| 17.2 | COCCN(C)C(=O)c1ccc(Nc2ncc3cc(C#CCNC(=O)c4c(C)n(C)n(Cc5ccc(F)c(F)c5)c4=O)ccc3n2)cc1 |
| 20.1 | COCCNC(=O)c1ccc(Nc2ncc3cc(C#CCNC(=O)c4c(C)n(C)n(Cc5ccc(F)c(F)c5)c4=O)ccc3n2)cc1 |
| 17.1 | Cc1c(C(=O)NCC#Cc2ccc3nc(Nc4ccccc4F)ncc3c2)c(=O)n(Cc2ccc(F)c(F)c2)n1C |
| 10.8 | Cc1c(C(=O)NCC#Cc2ccc3nc(Nc4ccc(C(=O)NCCN(C)C)cc4)ncc3c2)c(=O)n(Cc2ccc(F)c(F)c2)n1C |
| 13.1 | Cc1c(C(=O)NCC#Cc2ccc3nc(Nc4ccc(C(=O)NCCCN(C)C)cc4)ncc3c2)c(=O)n(Cc2ccc(F)c(F)c2)n1C |
| 14.4 | Cc1c(C(=O)NCC#Cc2ccc3nc(Nc4ccc(C(=O)N(C)CCO)cc4)ncc3c2)c(=O)n(Cc2ccc(F)c(F)c2)n1C |
| 12.1 | COCCCNC(=O)c1ccc(Nc2ncc3cc(C#CCNC(=O)c4c(C)n(C)n(Cc5ccc(F)c(F)c5)c4=O)ccc3n2)cc1 |
| 15.2 | Cc1c(C(=O)NCC#Cc2ccc3nc(Nc4ccc(C(=O)NCCCO)cc4)ncc3c2)c(=O)n(Cc2ccc(F)c(F)c2)n1C |
| 23.2 | Cc1c(C(=O)NCC#Cc2ccc3nc(Nc4ccc(C(=O)N(C)CCCO)cc4)ncc3c2)c(=O)n(Cc2ccc(F)c(F)c2)n1C |
| 22.5 | COC(=O)c1ccc(Nc2ncc3cc(/C=C/CNC(=O)c4cncn(Cc5ccc(F)c(F)c5)c4=O)ccc3n2)cc1Cl |
| 23 | Cc1c(C(=O)NC/C=C/c2ccc3nc(N)ncc3c2)c(=O)n(Cc2ccc(F)c(F)c2)n1C |
| 16.9 | Cc1c(C(=O)NC/C=C/c2ccc3nc(Nc4ccc(C(=O)NCCCN(C)C)cc4)ncc3c2)c(=O)n(Cc2ccc(F)c(F)c2)n1C |

| remaining activity at 10 µM [%] | SMILES |
| --- | --- |
| 13.8 | Cc1ncc(C(=O)NC/C=C/c2ccc3nc(Nc4ccc(CN(C)C)cc4)ncc3c2)c(=O)n1Cc1ccc(F)c(F)c1 |
| 20.7 | COC(=O)c1ccc(Nc2ncc3cc(/C=C/CNC(=O)c4c(C)n(C)n(Cc5ccc(F)c(F)c5)c4=O)ccc3n2)cc1 |
| 13.7 | Cc1c(C(=O)NC/C=C/c2ccc3nc(Nc4ccc(C(=O)N(C)C5CCN(C)CC5)c(F)c4)ncc3c2)c(=O)n(Cc2ccc(F)c(F)c2)n1C |
| 18.1 | Cc1c(C(=O)NC/C=C/c2ccc3nc(Nc4ccc(C(=O)NC5CCN(C)CC5)c(F)c4)ncc3c2)c(=O)n(Cc2ccc(F)c(F)c2)n1C |
| 29 | COc1cc(Nc2ncc3cc(/C=C/CNC(=O)c4cncn(Cc5ccc(F)c(F)c5)c4=O)ccc3n2)ccc1C(=O)NC1CCN(C)CC1 |
| 10.2 | COc1cc(Nc2ncc3cc(/C=C/CNC(=O)c4c(C)n(C)n(Cc5ccc(F)c(F)c5)c4=O)ccc3n2)ccc1C(=O)NC1CCN(C)CC1 |
| 22.4 | CN1CCC(NC(=O)c2ccc(Nc3ncc4cc(/C=C/CNC(=O)c5cncn(Cc6ccc(F)c(F)c6)c5=O)ccc4n3)cc2Cl)CC1 |
| 14.4 | Cc1c(C(=O)NC/C=C/c2ccc3nc(Nc4ccc(C(=O)NC5CCN(C)CC5)c(Cl)c4)ncc3c2)c(=O)n(Cc2ccc(F)c(F)c2)n1C |
| 19.7 | CN1CCC(NC(=O)c2ccc(Nc3ncc4cc(/C=C/CNC(=O)c5cncn(Cc6ccc(F)c(F)c6)c5=O)ccc4n3)cc2F)CC1 |
| 14.1 | CNC(=O)c1ccc(Nc2ncc3cc(/C=C/CNC(=O)c4cncn(Cc5ccc(F)c(F)c5)c4=O)ccc3n2)cc1Cl |
| 18.6 | CNC(=O)c1ccc(Nc2ncc3cc(/C=C/CNC(=O)c4c(C)n(C)n(Cc5ccc(F)c(F)c5)c4=O)ccc3n2)cc1Cl |
| 15.8 | Cc1c(C(=O)NC/C=C/c2ccc3nc(Nc4ccc(C(=O)N(C)C5CCN(C)CC5)c(Cl)c4)ncc3c2)c(=O)n(Cc2ccc(F)c(F)c2)n1C |
| 16.1 | CNc1ncc2cc(/C=C/CNC(=O)c3c(C)n(C)n(Cc4ccc(F)c(F)c4)c3=O)ccc2n1 |
| 22.7 | Cc1c(C(=O)NC/C=C/c2ccc3nc(Nc4ccccn4)ncc3c2)c(=O)n(Cc2ccc(F)c(F)c2)n1C |
| 38.2 | COC(=O)c1ccc(Nc2ncc3cc(/C=C/CNC(=O)c4cncn(Cc5ccc(F)c(F)c5)c4=O)ccc3n2)cc1OC |
| 13.6 | COC(=O)c1ccc(Nc2ncc3cc(/C=C/CNC(=O)c4c(C)n(C)n(Cc5ccc(F)c(F)c5)c4=O)ccc3n2)cc1OC |
| 12.9 | Cc1c(C(=O)NC/C=C/c2ccc3nc(Nc4ccc(C(=O)O)cc4)ncc3c2)c(=O)n(Cc2ccc(F)c(F)c2)n1C |
